{"source": "ChEMBL document CHEMBL1154867", "about": "“Cytotoxic halogenated metabolites from the Brazilian red alga Laurencia catarinensis” (J Nat Prod, 2010)", "type_in_all_cases": "functional, cell-based", "key": {"HT-29": {"tested_on": "HT-29", "assay": "Cytotoxicity against human HT-29 cells after 24 hrs by MTT assay", "conditions": "HT-29, 24 h"}, "MCF7": {"tested_on": "MCF7", "assay": "Cytotoxicity against human MCF7 cells after 24 hrs by MTT assay", "conditions": "MCF7, 24 h"}, "A-431": {"tested_on": "A-431", "assay": "Cytotoxicity against human A431 cells after 24 hrs by MTT assay", "conditions": "A-431, 24 h"}}}
{"smiles": "CC(=O)O[C@H]1C[C@@](C)(Cl)[C@H](Br)C[C@@H]1[C@]1(C)OC(C)(C)[C@@H](Br)C[C@@H]1O", "values": [{"measurement": "IC50", "setting": "HT-29", "value": 12.4, "unit": "µM"}, {"measurement": "IC50", "setting": "MCF7", "value": 11.7, "unit": "µM"}, {"measurement": "IC50", "setting": "A-431", "value": 13.1, "unit": "µM"}]}
{"smiles": "CC(=O)O[C@H]1C[C@H](Br)C(C)(C)O[C@@]1(C)[C@H]1C[C@@H](Br)[C@](C)(Cl)C[C@@H]1O", "values": [{"measurement": "IC50", "setting": "HT-29", "value": 70.4, "unit": "µM"}, {"measurement": "IC50", "setting": "MCF7", "value": 73.6, "unit": "µM"}, {"measurement": "IC50", "setting": "A-431", "value": 72.1, "unit": "µM"}]}
{"smiles": "C[C@]1(O)OC(=O)C=C1[C@@H]1CC[C@@](C)(Cl)[C@H](Br)C1", "note": "[FUROCAESPITANELACTOL]", "values": [{"measurement": "IC50", "setting": "HT-29", "value": "> 100", "unit": "µM"}, {"measurement": "IC50", "setting": "MCF7", "value": "> 100", "unit": "µM"}, {"measurement": "IC50", "setting": "A-431", "value": "> 100", "unit": "µM"}]}
{"smiles": "CC1(C)O[C@@](C)([C@@H]2CC[C@@](C)(Cl)[C@H](Br)C2)CC[C@H]1Br", "values": [{"measurement": "IC50", "setting": "HT-29", "value": "> 100", "unit": "µM"}, {"measurement": "IC50", "setting": "MCF7", "value": "> 100", "unit": "µM"}, {"measurement": "IC50", "setting": "A-431", "value": "> 100", "unit": "µM"}]}
{"smiles": "CC(=O)O[C@H]1C[C@@](C)(Cl)[C@H](Br)C[C@@H]1[C@]1(C)OC(C)(C)[C@@H](Br)C[C@@H]1OC(C)=O", "values": [{"measurement": "IC50", "setting": "HT-29", "value": "> 100", "unit": "µM"}, {"measurement": "IC50", "setting": "MCF7", "value": "> 100", "unit": "µM"}, {"measurement": "IC50", "setting": "A-431", "value": "> 100", "unit": "µM"}]}
{"smiles": "CO[C@]1(C)OC(=O)C=C1[C@@H]1CC[C@@](C)(Cl)[C@H](Br)C1", "note": "(relative stereo)", "values": [{"measurement": "IC50", "setting": "HT-29", "value": "> 100", "unit": "µM"}, {"measurement": "IC50", "setting": "MCF7", "value": "> 100", "unit": "µM"}, {"measurement": "IC50", "setting": "A-431", "value": "> 100", "unit": "µM"}]}
{"smiles": "CC1(C)O[C@](C)([C@H]2CC[C@](C)(Cl)[C@@H](Br)C2)[C@H](O)C[C@H]1Br", "note": "[CAESPITOL]", "values": [{"measurement": "IC50", "setting": "HT-29", "value": 7.6, "unit": "µM"}, {"measurement": "IC50", "setting": "MCF7", "value": 9.7, "unit": "µM"}, {"measurement": "IC50", "setting": "A-431", "value": 10.2, "unit": "µM"}]}
{"smiles": "CCCCCCCCCCCCCCCCOP(=O)([O-])OCC[N+](C)(C)C", "note": "[MILTEFOSINE]", "values": [{"measurement": "IC50", "setting": "HT-29", "value": 48.6, "unit": "µM"}, {"measurement": "IC50", "setting": "MCF7", "value": 42.3, "unit": "µM"}, {"measurement": "IC50", "setting": "A-431", "value": 53.7, "unit": "µM"}]}
{"smiles": "CC(=O)O[C@H]1C[C@@](C)(Cl)[C@H](Br)C[C@@H]1[C@@]1(C)CC[C@H](Br)C(C)(C)O1", "values": [{"measurement": "IC50", "setting": "HT-29", "value": 48.8, "unit": "µM"}, {"measurement": "IC50", "setting": "MCF7", "value": 52.4, "unit": "µM"}, {"measurement": "IC50", "setting": "A-431", "value": 54.9, "unit": "µM"}]}
{"smiles": "CC1(C)O[C@@](C)([C@@H]2CC[C@](C)(Br)[C@@H](Cl)C2)CC[C@@H]1Br", "note": "[DEOXY ISOCAESPITOL]", "values": [{"measurement": "IC50", "setting": "HT-29", "value": 27.3, "unit": "µM"}, {"measurement": "IC50", "setting": "MCF7", "value": 31.7, "unit": "µM"}, {"measurement": "IC50", "setting": "A-431", "value": 30.7, "unit": "µM"}]}
{"smiles": "CC(=O)O[C@H]1C[C@H](Br)C(C)(C)O[C@@]1(C)[C@@H]1CC[C@@](C)(Cl)[C@H](Br)C1", "note": "[ACETYLCAESPITOL]", "values": [{"measurement": "IC50", "setting": "HT-29", "value": 16.1, "unit": "µM"}, {"measurement": "IC50", "setting": "MCF7", "value": 17.6, "unit": "µM"}, {"measurement": "IC50", "setting": "A-431", "value": 17.4, "unit": "µM"}]}
{"smiles": "CO[C@@]1(C)OC(=O)C=C1[C@@H]1CC[C@@](C)(Cl)[C@H](Br)C1", "note": "(relative stereo)", "values": [{"measurement": "IC50", "setting": "HT-29", "value": 85.6, "unit": "µM"}, {"measurement": "IC50", "setting": "MCF7", "value": 89, "unit": "µM"}, {"measurement": "IC50", "setting": "A-431", "value": 91.7, "unit": "µM"}]}
{"smiles": "CC1(C)O[C@@](C)([C@@H]2CC[C@](C)(Br)[C@@H](Cl)C2)[C@@H](O)C[C@@H]1Br", "note": "[ISOCAESPITOL]", "values": [{"measurement": "IC50", "setting": "HT-29", "value": "> 100", "unit": "µM"}, {"measurement": "IC50", "setting": "MCF7", "value": "> 100", "unit": "µM"}, {"measurement": "IC50", "setting": "A-431", "value": "> 100", "unit": "µM"}]}
{"smiles": "CC1(C)C=CC(=O)[C@](C)([C@@H]2CC[C@@](C)(Cl)[C@H](Br)C2)O1", "note": "[CAESPITENONE]", "values": [{"measurement": "IC50", "setting": "HT-29", "value": 18.9, "unit": "µM"}, {"measurement": "IC50", "setting": "MCF7", "value": 19.7, "unit": "µM"}, {"measurement": "IC50", "setting": "A-431", "value": 21.6, "unit": "µM"}]}
{"smiles": "CC1(C)O[C@@](C)([C@@H]2CC[C@@](C)(Cl)[C@H](Br)C2)CC[C@@H]1Br", "note": "[DEOXYCAESPITOL]", "values": [{"measurement": "IC50", "setting": "HT-29", "value": 12.5, "unit": "µM"}, {"measurement": "IC50", "setting": "MCF7", "value": 11.2, "unit": "µM"}, {"measurement": "IC50", "setting": "A-431", "value": 13.1, "unit": "µM"}]}
